Test results taken from US6506901B2, “Substituted 2-(S)-hydroxy-3-(piperidin-4-yl-methylamino)-propyl ethers and substituted 2-aryl-2-(R)-hydroxy-1-(piperidin-4-yl-methyl)-ethylamine β-3 adrenergic receptor agonists” (Wyeth, priority 2000, dated 2003).
“And” between values parts separate entries of the source, which are not always exact repeats. Equal values may be shown once.

Target: T1, human β3 receptors (Homo sapiens, UniProt P13945)
T1 construct: Full length β3 AR clones (402 amino acids) containing the last 6 amino acids of hβ3—AR; expressed in transfected cells; host or cells: CHO cells
T1 sequence (P13945 whole entry): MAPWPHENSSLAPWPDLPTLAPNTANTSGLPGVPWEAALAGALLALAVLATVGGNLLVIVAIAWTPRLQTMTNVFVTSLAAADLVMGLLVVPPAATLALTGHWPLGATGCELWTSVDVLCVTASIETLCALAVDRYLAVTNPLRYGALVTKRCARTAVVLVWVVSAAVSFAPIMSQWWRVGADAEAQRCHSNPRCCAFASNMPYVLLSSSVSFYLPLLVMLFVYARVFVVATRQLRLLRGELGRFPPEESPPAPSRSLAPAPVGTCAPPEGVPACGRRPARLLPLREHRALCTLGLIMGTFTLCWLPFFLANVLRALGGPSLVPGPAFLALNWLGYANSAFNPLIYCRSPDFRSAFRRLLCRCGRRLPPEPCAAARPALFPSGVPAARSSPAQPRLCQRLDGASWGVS
Test: cAMP response (SPA) in CHO cells expressing cloned human β3 adrenergic receptor
Format: cell-based
Settings: for EC50: CHO cells expressing human β3 receptor, cAMP, 30 min incubation, 10^−9 M to 10^−5 M; for IA(β3): maximal response compared to the maximal response of isoproterenol at 10^−5 M
Experimental: Binding to the receptors was measured in Chinese Hamster ovary (CHO) cells that were transfected with adrenergic receptors.
Cloning of Human β3-AR Genomic DNA: cDNA was constructed by ligating four polymerase chain reaction (PCR) products using the following primers: an ATG-NarI fragment, sense primer 5′-[…]3′ and anti-sense primer 5′ […]3′; a NarI-AccI fragment, 5′ […]3′ as sense and 5′ […]3′ as anti-sense primer; an AccIi-StyI fragment, sense primer 5′ […]3′ and anti-sense primer 5′ […]3′ and a StyI-TAG fragment, with sense primer 5′ […]3′ and anti-sense primer 5′ […]3′. The corresponding primer sequences are described in Mantzoros, C. […] The four fragments are ligated into a pUC 18 plasmid (Gibco-BRL) and sequenced.
CHO cells were grown in 24-well tissue culture plates in Dulbecco's Modified Eagle Media with 10% fetal bovine serum, MEM non-essential amino acids, Penicillin-Streptompycin and Geneticin. […] Isoproterenol (10^−5 M) was used as an internal standard for comparison of activity. Cells were incubated at 37° C. on a rocker for 30 min with the β3 cells and 15 min for β1 and β2 cells. Incubation was stopped with the addition of 0.2N HCl and neutralized with 2.5N NaOH. The plates, containing the cells and neutralized media, were stored at −20 degrees celsius until ready to test for cAMP using the SPA test kit (Amersham).
Data Analysis and Results: Data collected from the SPA test procedure were analyzed as per cent of the maximal isoproterenol response at 10^−5 M. Activity curves were plotted using the SAS statistical and graphics software.

Compound: CCc1cc(Br)ccc1S(=O)(=O)N1CCC(CNC[C@H](O)c2ccc(O)c(NS(C)(=O)=O)c2)CC1 [Example 168, N-(5-((1R)-2-[({1-[(4-bromo-2-ethylphenyl)sulfonyl]piperidin-4-yl}-methyl)amino]-1-hydroxyethyl}-2-hydroxyphenyl)-methanesulfonamide]
- EC50: 940 nM
- IA(β3): 0.72

Compound: CCOC(=O)c1cc2ccccc2n1-c1ccc(S(=O)(=O)N2CCC(CNC[C@H](O)c3ccc(O)c(NS(C)(=O)=O)c3)CC2)cc1 [Example 95, 1-[4-(4-{[(2R)-2-Hydroxy-2-(4-hydroxy-3-methanesulfonylamino-phenyl)-ethyl-amino]-methyl}-piperidine-1-sulfonyl)-phenyl]-1H-indole-2-carboxalic Acid Ethyl Ester]
- EC50: 125 nM
- IA(β3): 0.82

Compound: COC(=O)c1cccc2c1ccn2-c1ccc(S(=O)(=O)N2CCC(CNC[C@H](O)c3ccc(O)c(NS(C)(=O)=O)c3)CC2)cc1 [Example 98, 1-[4-(4-{[(2R)-2-Hydroxy-2-(4-hydroxy-3-methanesulfonylamino-phenyl)-ethyl-amino]-methyl}-piperidine-1-sulfonyl)-phenyl]-1H-indole-4-carboxylic Acid Methyl Ester]
- EC50: 25 nM
- IA(β3): 1

Compound: CC(C)N(Cc1cc(F)ccc1F)C(=O)Nc1ccc(S(=O)(=O)N2CCC(CNC[C@H](O)c3ccc(O)c(NS(C)(=O)=O)c3)CC2)cc1 [Example 86]
- EC50: 3 nM
- IA(β3): 0.78

Compound: CS(=O)(=O)Nc1cc([C@@H](O)CNCC2CCN(c3ccc(C(=O)N4CCCC4C(=O)O)cc3)CC2)ccc1O (stereo in doubt) [Example 115, (2S)-1-[4-(4-{[((2R)-2-Hydroxy-2-{4-hydroxy-3-[(methylsulfonyl)amino]phenyl}-ethyl)amino]methyl}piperidin-1-yl)benzoyl]pyrrolidine-2-carboxylic Acid]
- EC50: 66 nM
- IA(β3): 1

Compound: CS(=O)(=O)Nc1cc([C@@H](O)CNCC2CCN(S(=O)(=O)c3ccc(-n4cc(CC(=O)O)c5ccccc54)cc3)CC2)ccc1O [Example 97, {1-[4-(4-{[(2R)-2-Hydroxy-2-(4-hydroxy-3-methanesulfonylamino-phenyl)-ethylamino]-methyl}-piperidine-1-sulfonyl)-phenyl]-1H-indol-3-yl}-acetic Acid]
- EC50: 11 nM
- IA(β3): 0.96

Compound: CC(C)N(Cc1c(F)cccc1F)C(=O)Nc1ccc(S(=O)(=O)N2CCC(CNC[C@H](O)c3ccc(O)c(NS(C)(=O)=O)c3)CC2)cc1 [Example 84, N-(5-{(1R)-2-[(1-{4-[3-(2,6-Difluoro-benzyl)-3-isopropyl-ureido]-benzenesulfonyl}-piperidin-4-ylmethyl)-amino]-1-hydroxy-ethyl}-2-hydroxy-phenyl)-methane-sulfonamide]
- EC50: 27 nM
- IA(β3): 0.93

Compound: CS(=O)(=O)Nc1cc([C@@H](O)CNCC2CCN(S(=O)(=O)c3ccc(-n4cc(C(=O)O)cn4)cc3)CC2)ccc1O [Example 101, 1-{4-[(4-{[((2R)-2-Hydroxy-2-{4-hydroxy-3-[(methylsulfonyl)amino]-phenyl}ethyl)amino]methyl}piperidin-1-yl)sulfonyl]phenyl}-1H-pyrazole-4-carboxylic Acid]
- EC50: 43 nM
- IA(β3): 0.93

Compound: CC(C)c1ccc(S(=O)(=O)N2CCC(CNC[C@H](O)c3ccc(O)c(NS(C)(=O)=O)c3)CC2)cc1 [Example 124, N-(2-hydroxy-5-{(1R)-1-hydroxy-2-[({1-[(4-isopropylphenyl)-sulfonyl]piperidin-4-yl}methyl)amino]ethyl}phenyl)-methanesulfonamide]
- EC50: 55 nM
- IA(β3): 1

Compound: O[C@@H](CNCC1CCN(CCC(F)(F)F)CC1)COc1c(Cl)ccc2[nH]c3ccccc3c12 [Example 19, (2S)-1-(3-Chloro-9H-carbazol-4-yloxy)-3-{[1-(3,3,3-trifluoro-propyl)-piperidin-4-ylmethyl]-amino}-propan-2-ol]
- EC50: 1240 nM
- IA(β3): 0.82

Compound: COC(=O)CCc1nc(-c2ccc(S(=O)(=O)N3CCC(CNC[C@H](O)c4ccc(O)c(NS(C)(=O)=O)c4)CC3)cc2)no1 [Example 104, 3-{3-[4-(4-{[(2R)-2-Hydroxy-2-(4-hydroxy-3-methanesulfonylamino-phenyl)-ethylamino]-methyl}-piperidine-1-sulfonyl)-phenyl]-[1,2,4]oxadiazol-5-yl}-propionic Acid Methyl Ester]
- EC50: 8 nM
- IA(β3): 1

Compound: Cc1cc2c(OC[C@@H](O)CNCC3CCN(CCC(F)(F)F)CC3)cccc2[nH]1 [Example 23, (2S)-1-(2-Methyl-1H-indol-4-yloxy)-3-{[1-(3,3,3-trifluoro-propyl)-piperidin-4-ylmethyl]-amino}-propan-2-ol]
- EC50: 1090 nM
- IA(β3): 0.66

Compound: O[C@@H](CNCC1CCN(CCCC(F)(F)F)CC1)COc1cccc2[nH]c3ccccc3c12 [Example 24, (2S)-1-(9H-Carbazol-4-yloxy)-3-{[1-(4,4,4-trifluoro-butyl)-piperidin-4-ylmethyl]-amino}-propan-2-ol]
- EC50: 943 nM
- IA(β3): 0.98

Compound: CCOC(=O)c1cccc(NC(=O)N2CCC(CNC[C@H](O)COc3ccc(O)cc3)CC2)c1 [Example 52, 3-[(4-{[(2S)-2-Hydroxy-3-(4-hydroxy-phenoxy)-propylamino]-methyl}-piperidine-1-carbonyl)-amino]-benzoic Acid Ethyl Ester]
- EC50: 305 nM
- IA(β3): 0.9

Compound: CCOC(=O)Cc1cn(-c2ccc(S(=O)(=O)N3CCC(CNC[C@H](O)c4ccc(O)c(NS(C)(=O)=O)c4)CC3)cc2)c2ccccc12 [Example 96, {1-[4-(4-{[(2R)-2-Hydroxy-2-(4-hydroxy-3-methanesulfonylamino-phenyl)-ethylamino]-methyl}-piperidine-1-sulfonyl)-phenyl]-1H-indol-3-yl}-acetic Acid Ethyl Ester]
- EC50: 13 nM
- IA(β3): 0.85

Compound: CC(C)(C)c1ccc(S(=O)(=O)N2CCC(CNC[C@H](O)COc3cccc4[nH]c(=O)[nH]c34)CC2)cc1 [Example 162, 4-[((2S)-3-{[(1-{[4-(tert-butyl)phenyl]sulfonyl}piperidin-4-yl)methyl]-amino}-2-hydroxypropyl)oxy]-1,3-dihydro-2H-benzimidazol-2-one]
- EC50: 11 nM and 35 nM
- IA(β3): 0.64 and 0.94

Compound: Cc1c(C)c(C)c(S(=O)(=O)N2CCC(CNC[C@H](O)c3ccc(O)c(NS(C)(=O)=O)c3)CC2)c(C)c1C [Example 143, N-(2-hydroxy-5-{(1R)-1-hydroxy-2-[({1-[(2,3,4,5,6-pentamethylphenyl)suIfonyl]piperidin-4-yl}methyl)amino]ethyl}phenyl)methanesulfonamide]
- EC50: 810 nM
- IA(β3): 1.34

Compound: CS(=O)(=O)Nc1cc([C@@H](O)CNCC2CCN(S(=O)(=O)c3ccc(NC(=O)Nc4ccccn4)cc3)CC2)ccc1O [Example 67, N-{2-Hydroxy-5-[(1R)-1-hydroxy-2-({1-[4-(3-pyridin-2-yl-ureido)-benzenesulfonyl]-piperidin-4-ylmethyl}-amino)-ethyl]-phenyl}-methanesulfonamide]
- EC50: 20 nM
- IA(β3): 1.2

Compound: Cn1cnc(S(=O)(=O)N2CCC(CNC[C@H](O)COc3ccc(O)cc3)CC2)c1 [Example 49, 4-((2S)-2-Hydroxy-3-{[1-(1-methyl-1H-imidazole-4-sulfonyl)-piperidin-4-ylmethyl]-amino}-propoxy)-phenol]
- EC50: 2360 nM
- IA(β3): 0.4

Compound: COC(=O)[C@@H]1CCCN1C(=O)Nc1ccc(S(=O)(=O)N2CCC(CNC[C@H](O)c3ccc(O)c(NS(C)(=O)=O)c3)CC2)cc1 [Example 111, (2S)-1-({4-[(4-{[((2R)-2-Hydroxy-2-{4-hydroxy-3-[(methylsulfonyl)amino]-phenyl}ethyl)amino]methyl}piperidin-1-yl)sulfonyl]anilino}carbonyl)pyrrolidine-2-carboxylic Acid Methyl Ester]
- EC50: 95 nM
- IA(β3): 0.9

Compound: CS(=O)(=O)Nc1cc([C@@H](O)CNCC2CCN(S(=O)(=O)c3ccc(NC(=O)NCc4ccc(OCC(=O)O)cc4F)cc3)CC2)ccc1O [Example 89, [3-Fluoro-4-[[[[[4-[[4-[[[(R)-2-hydroxy-2-[4-hydroxy-3-[(methylsulfonyl)amino]phenyl]-ethy]amino]-methyl]-1-piperidinyl]sulfonyl]phenyl]amino]carbonyl]-amino]-methyl]phenoxy]acetic Acid]
- EC50: 35 nM

Compound: COc1ccc(S(=O)(=O)N2CCC(CNC[C@H](O)COc3cccc4[nH]c(=O)[nH]c34)CC2)cc1 [Example 39, 4-((2S)-2-Hydroxy-3-{[1-(4-methoxy-benzenesulfonyl)-piperidin-4-ylmethyl]-amino}-propoxy)-1,3-dihydro-benzoimidazol-2-one]
- EC50: 30 nM
- IA(β3): 0.81

Compound: O=C(Nc1ccc(S(=O)(=O)N2CCC(CNC[C@H](O)COc3ccc(O)cc3)CC2)cc1)Nc1c(F)cccc1F [Example 83]
- EC50: 112 nM
- IA(β3): 1.2
